Reference: BindingDB's records for doi:10.1021/jm00087a023 (American Cyanamid, 1992)
pIC50: −log10 of the molar value.

Assay: Inhibition of PAF induced platelet aggregation in rabbit

Compound | pIC50
CCCCCCCCCCCCCCCCOCC(COP(=O)(O)Oc1cccc(C[P+](c2ccccc2)(c2ccccc2)c2ccccc2)c1)OC (configuration not stated) | 4.87
CCCCCCCCCCCCCCOc1cccc(OP(=O)([O-])Oc2cccc(C[n+]3c[nH]c4ccccc43)c2)c1OC | 5.83
